From ChEMBL document CHEMBL1212738, “Phenotypic and genotypic characterization of Enterobacteriaceae with decreased susceptibility to carbapenems: results from large hospital-based surveillance studies in China” (2010)
Converted amounts (≈) assume the structure as drawn.

Legend:
Klebsiella pneumoniae [1] = assay: Antimicrobial activity against carbapenem-resistant Klebsiella pneumoniae ZJ69 deficient in SHV-28, ompK35/36 by CLSI method; assay type: functional
Klebsiella pneumoniae [2] = assay: Antimicrobial activity against carbapenem-resistant Klebsiella pneumoniae GZ83 deficient in SHV-11, CTX-M-14, ompK35/36 by CLSI method; assay type: functional
Klebsiella pneumoniae [3] = assay: Antimicrobial activity against carbapenem-resistant Klebsiella pneumoniae PU104 deficient in TEM-1, SHV-11, CTX-M-15, qnrS1, ompK35/36 by CLSI method; assay type: functional
Escherichia coli [4] = assay: Antimicrobial activity against carbapenem-resistant Escherichia coli PU60 deficient in TEM-1, CMY-2, ompC/F by CLSI method; assay type: functional
Escherichia coli [5] = assay: Antimicrobial activity against carbapenem-resistant Escherichia coli PU96 deficient in TEM-1, CTX-M-14, CMY-2, ompC/F by CLSI method; assay type: functional
Escherichia coli [6] = assay: Antimicrobial activity against carbapenem-resistant Escherichia coli PU102 deficient in TEM-1, CTX-M-14, CMY-2, aac(6')-Ib, ompC DEc, ompF by CLSI method; assay type: functional
Klebsiella aerogenes = assay: Antimicrobial activity against carbapenem-resistant Enterobacter aerogenes PU41 deficient in CTX-M-14, DHA-1, qnrS1, ompC DEc, ompF by CLSI method; assay type: functional
Escherichia coli [7] = assay: Antimicrobial activity against carbapenem-resistant Escherichia coli PU43 deficient in TEM-1, CTX-M-14, aac(6')-Ib, ompC/F by CLSI method; assay type: functional
Escherichia coli [8] = assay: Antimicrobial activity against Escherichia coli HX74T expressing CTX-M-3 by CLSI method; assay type: functional
Enterobacter cloacae [9] = assay: Antimicrobial activity against carbapenem-resistant Enterobacter cloacae GX56 deficient in ompC and expressing low levels of ompF DE by CLSI method; assay type: functional
Klebsiella pneumoniae [10] = assay: Antimicrobial activity against Klebsiella pneumoniae WH97 expressing SHV-33, aac(6')-Ib, ompK35 DE by CLSI method; assay type: functional
Enterobacter cloacae [11] = assay: Antimicrobial activity against carbapenem-resistant Enterobacter cloacae SZ93 deficient in ompC by CLSI method; assay type: functional
Klebsiella pneumoniae [12] = assay: Antimicrobial activity against carbapenem-resistant Klebsiella pneumoniae ZJ70 deficient in KPC-2, SHV-11, CTX-M-14, ompK35/36 by CLSI method; assay type: functional
Klebsiella pneumoniae [13] = assay: Antimicrobial activity against carbapenem-resistant Klebsiella pneumoniae ZJ71 deficient in KPC-2, TEM-1, SHV-11, CTX-M-14, ompK35 by CLSI method; assay type: functional
Klebsiella pneumoniae [14] = assay: Antimicrobial activity against Klebsiella pneumoniae ZJ99T expressing KPC-2, CTX-M-3, qnrS1 by CLSI method; assay type: functional
Klebsiella pneumoniae [15] = assay: Antimicrobial activity against carbapenem-resistant Klebsiella pneumoniae FZ47 deficient in IMP-8, TEM-1, SHV-11, CTX-M-14, qnrB2, aac(6')-Ib, ompK35/36 by CLSI method; assay type: functional
Klebsiella pneumoniae [16] = assay: Antimicrobial activity against Klebsiella pneumoniae FZ49T expressing IMP-8, TEM-1, CTX-M-14, qnrB2, aac(6')-Ib by CLSI method; assay type: functional
Klebsiella pneumoniae [17] = assay: Antimicrobial activity against Klebsiella pneumoniae GZ64T expressing IMP-4 by CLSI method; assay type: functional
Klebsiella pneumoniae [18] = assay: Antimicrobial activity against Klebsiella pneumoniae WH76 expressing IMP-4, TEM-1, SHV-14, CTX-M-3, qnrS1 by CLSI method; assay type: functional
Citrobacter freundii [19] = assay: Antimicrobial activity against Citrobacter freundii SZ62 expressing IMP-4, TEM-1, CMY-2, qnrS1, aac(6')-Ib-cr by CLSI method; assay type: functional
Citrobacter freundii [20] = assay: Antimicrobial activity against Citrobacter freundii SZ63 expressing IMP-4, qnrS1by CLSI method; assay type: functional
Citrobacter freundii [21] = assay: Antimicrobial activity against Citrobacter freundii SZ63T expressing IMP-4, qnrS1by CLSI method; assay type: functional
Enterobacter cloacae [22] = assay: Antimicrobial activity against carbapenem-resistant Enterobacter cloacae RJ94 deficient in IMP-4, TEM-1, CTX-M-3, ompC by CLSI method; assay type: functional
Enterobacter cloacae [23] = assay: Antimicrobial activity against carbapenem-resistant Enterobacter cloacae WH103 deficient in IMP-4, TEM-1, CTX-M-3, qnrS1, ompC by CLSI method; assay type: functional
Klebsiella pneumoniae [24] = assay: Antimicrobial activity against carbapenem-resistant Klebsiella pneumoniae PU3 deficient in DHA-1, aac(6')-Ib-cr, ompK35/36 by CLSI method; assay type: functional
Klebsiella pneumoniae [25] = assay: Antimicrobial activity against carbapenem-resistant Klebsiella pneumoniae PU4 deficient in SHV-1, DHA-1, ompK35/36 by CLSI method; assay type: functional
Klebsiella pneumoniae [26] = assay: Antimicrobial activity against carbapenem-resistant Klebsiella pneumoniae GZ66 deficient in SHV-11, DHA-1, ompK35/36 by CLSI method; assay type: functional
Klebsiella pneumoniae [27] = assay: Antimicrobial activity against carbapenem-resistant Klebsiella pneumoniae SX67 deficient in SHV-2, CTX-M-14, DHA-1, qnrB6/S1, aac(6')-Ib-cr, ompK35/36 by CLSI method; assay type: functional
Klebsiella pneumoniae [28] = assay: Antimicrobial activity against carbapenem-resistant Klebsiella pneumoniae PU105 deficient TEM-1, SHV-12, CTX-M-14, DHA-1, qnrB10/B4-like, aac(6')-Ib-cr, ompK35/36 by CLSI method; assay type: functional
Escherichia coli [29] = assay: Antimicrobial activity against Escherichia coli C600 transconjugant SZ62T expressing IMP-4, qnrS1by CLSI method
Klebsiella pneumoniae [30] = assay: Antimicrobial activity against carbapenem-resistant Klebsiella pneumoniae ZJ68 deficient in CTX-M-15, ompK35/36 by CLSI method

In the case of `C[C@@H](O)[C@H]1C(=O)N2C(C(=O)O)=C(S[C@@H]3CN[C@H](C(=O)Nc4cccc(C(=O)O)c4)C3)[C@H](C)[C@H]12`, the MIC (Klebsiella pneumoniae [1]) is reported as 32 µg/mL (≈ 67.3 µM), the MIC (Klebsiella pneumoniae [2]) is reported as 128 µg/mL (≈ 269 µM) and the MIC (Klebsiella pneumoniae [3]) is reported as 64 µg/mL (≈ 135 µM). The MIC (Escherichia coli [4]) was 64 µg/mL (≈ 135 µM), the MIC (Escherichia coli [5]) was 128 µg/mL (≈ 269 µM) and the MIC (Escherichia coli [6]) was 64 µg/mL (≈ 135 µM). The MIC (Klebsiella aerogenes) was 64 µg/mL (≈ 135 µM), the MIC (Escherichia coli [7]) was 32 µg/mL (≈ 67.3 µM) and the MIC (Escherichia coli [8]) was 0.064 µg/mL (≈ 0.135 µM). The MIC (Enterobacter cloacae [9]) was 32 µg/mL (≈ 67.3 µM), the MIC (Klebsiella pneumoniae [10]) was 4 µg/mL (≈ 8.41 µM) and the MIC (Enterobacter cloacae [11]) was 0.064 µg/mL (≈ 0.135 µM). For the same molecule, the MIC (Klebsiella pneumoniae [12]) was greater than 256 µg/mL, the MIC (Klebsiella pneumoniae [13]) was 16 µg/mL (≈ 33.6 µM) and the MIC (Klebsiella pneumoniae [14]) was 8 µg/mL (≈ 16.8 µM). It also gave an MIC (Klebsiella pneumoniae [15]) of 8 µg/mL (≈ 16.8 µM), an MIC (Klebsiella pneumoniae [16]) of 4 µg/mL (≈ 8.41 µM) and an MIC (Klebsiella pneumoniae [17]) of 4 µg/mL (≈ 8.41 µM). For the same molecule, the MIC (Klebsiella pneumoniae [18]) was 2 µg/mL (≈ 4.21 µM), the MIC (Citrobacter freundii [19]) was 4 µg/mL (≈ 8.41 µM) and the MIC (Citrobacter freundii [20]) was 4 µg/mL (≈ 8.41 µM). The MIC (Citrobacter freundii [21]) was 4 µg/mL (≈ 8.41 µM), the MIC (Enterobacter cloacae [22]) was 32 µg/mL (≈ 67.3 µM) and the MIC (Enterobacter cloacae [23]) was 32 µg/mL (≈ 67.3 µM). It also gave an MIC (Klebsiella pneumoniae [24]) of 64 µg/mL (≈ 135 µM), an MIC (Klebsiella pneumoniae [25]) of 32 µg/mL (≈ 67.3 µM) and an MIC (Klebsiella pneumoniae [26]) of 64 µg/mL (≈ 135 µM). The MIC (Klebsiella pneumoniae [27]) was 32 µg/mL (≈ 67.3 µM), the MIC (Klebsiella pneumoniae [28]) was 128 µg/mL (≈ 269 µM) and the MIC (Escherichia coli [29]) was 4 µg/mL (≈ 8.41 µM). For the same molecule, the MIC (Klebsiella pneumoniae [30]) was 64 µg/mL (≈ 135 µM).

`NCC[C@H](O)C(=O)N[C@@H]1C[C@H](N)[C@@H](O[C@H]2O[C@H](CN)[C@@H](O)[C@H](O)[C@H]2O)[C@H](O)[C@H]1O[C@H]1O[C@H](CO)[C@@H](O)[C@H](N)[C@H]1O` [AMIKACIN] gave an MIC (Klebsiella pneumoniae [1]) greater than 256 µg/mL, an MIC (Klebsiella pneumoniae [2]) greater than 256 µg/mL and an MIC (Klebsiella pneumoniae [3]) of 0.5 µg/mL (≈ 0.854 µM). The MIC (Escherichia coli [4]) was 32 µg/mL (≈ 54.6 µM), the MIC (Escherichia coli [5]) was 2 µg/mL (≈ 3.42 µM) and the MIC (Escherichia coli [6]) was 64 µg/mL (≈ 109 µM). It also gave an MIC (Klebsiella aerogenes) greater than 256 µg/mL, an MIC (Escherichia coli [7]) of 8 µg/mL (≈ 13.7 µM) and an MIC (Escherichia coli [8]) of 2 µg/mL (≈ 3.42 µM). For the same molecule, the MIC (Enterobacter cloacae [9]) was greater than 256 µg/mL, the MIC (Klebsiella pneumoniae [10]) was 1 µg/mL (≈ 1.71 µM) and the MIC (Enterobacter cloacae [11]) was 1 µg/mL (≈ 1.71 µM). For the same molecule, the MIC (Klebsiella pneumoniae [12]) was greater than 256 µg/mL, the MIC (Klebsiella pneumoniae [13]) was greater than 256 µg/mL and the MIC (Klebsiella pneumoniae [14]) was 2 µg/mL (≈ 3.42 µM). For the same molecule, the MIC (Klebsiella pneumoniae [15]) was greater than 256 µg/mL, the MIC (Klebsiella pneumoniae [16]) was greater than 256 µg/mL and the MIC (Klebsiella pneumoniae [17]) was 1 µg/mL (≈ 1.71 µM). It also gave an MIC (Klebsiella pneumoniae [18]) of 1 µg/mL (≈ 1.71 µM), an MIC (Citrobacter freundii [19]) greater than 256 µg/mL and an MIC (Citrobacter freundii [20]) greater than 256 µg/mL. It also gave an MIC (Citrobacter freundii [21]) greater than 256 µg/mL, an MIC (Enterobacter cloacae [22]) of 0.5 µg/mL (≈ 0.854 µM) and an MIC (Enterobacter cloacae [23]) of 1 µg/mL (≈ 1.71 µM). The MIC (Klebsiella pneumoniae [24]) was 16 µg/mL (≈ 27.3 µM), the MIC (Klebsiella pneumoniae [25]) was greater than 256 µg/mL and the MIC (Klebsiella pneumoniae [26]) was greater than 256 µg/mL. It also gave an MIC (Klebsiella pneumoniae [27]) greater than 256 µg/mL, an MIC (Klebsiella pneumoniae [28]) greater than 256 µg/mL and an MIC (Escherichia coli [29]) of 1 µg/mL (≈ 1.71 µM). It also gave an MIC (Klebsiella pneumoniae [30]) greater than 256 µg/mL.
